Values quoted from earlier work as cited in US20190350224A1, “METHOD FOR IMPROVING MUSCLE FORCE OR PHYSICAL FUNCTION” (University of Washington, priority 2018, published 2019).

Conditions: against reactive oxygen species

Structure (SMILES): CC1=C(/C=C/C(C)=C/C=C/C(C)=C/C=C/C=C(C)/C=C/C=C(C)/C=C/C2=C(C)C(=O)C(O)CC2(C)C)C(C)(C)CC(O)C1=O (stereo not drawn) [astaxanthin, 3,3′-dihydroxy-β,β-carotene-4,4′-dione]
- antioxidant action relative to n-carotene: about 40 times
